In patent US20170349593A1, “BTK INHIBITORS” (MERCK SHARP & DOHME CORP., priority 2014, published 2017):

How the values were obtained:
[1] = target: T1, BTK enzyme (recombinant full-length BTK, hBTK) (Homo sapiens, UniProt Q06187); assay: Btk enzyme activity assay (LANCE TR-FRET); type: biochemical; conditions: 50 pM hBTK, 25 μM ATP, 60 minute compound and enzyme incubation, concentration range 1 μM to 0.017 nM, read-out: BTK binding IC50
T1 construct: recombinant protein from baculovirus-transfected S 19 cells: full-length BTK, 6 HIS-tag cleaved; 6 HIS-tag (cleaved yes); made in house
T1 sequence (Q06187 whole entry): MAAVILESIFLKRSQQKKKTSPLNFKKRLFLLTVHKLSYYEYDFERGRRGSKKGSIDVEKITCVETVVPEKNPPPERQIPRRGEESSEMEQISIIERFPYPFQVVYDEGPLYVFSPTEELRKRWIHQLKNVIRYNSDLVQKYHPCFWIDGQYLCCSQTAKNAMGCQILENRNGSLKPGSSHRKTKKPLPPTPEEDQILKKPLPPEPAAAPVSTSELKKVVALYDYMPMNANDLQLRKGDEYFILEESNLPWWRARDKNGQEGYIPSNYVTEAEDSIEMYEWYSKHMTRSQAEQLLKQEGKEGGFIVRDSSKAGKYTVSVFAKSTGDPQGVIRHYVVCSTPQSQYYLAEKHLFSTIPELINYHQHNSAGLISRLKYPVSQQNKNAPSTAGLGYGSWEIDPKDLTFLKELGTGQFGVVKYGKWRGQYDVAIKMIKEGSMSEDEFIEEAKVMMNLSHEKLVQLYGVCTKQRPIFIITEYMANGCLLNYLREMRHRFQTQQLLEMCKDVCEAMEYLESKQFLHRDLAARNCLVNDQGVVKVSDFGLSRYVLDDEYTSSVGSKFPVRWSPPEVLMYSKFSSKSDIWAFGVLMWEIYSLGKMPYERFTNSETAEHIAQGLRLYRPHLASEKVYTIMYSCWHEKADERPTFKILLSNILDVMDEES

[2] = tested on: adenosine uptake into HeLa cells; assay: [3H]Adenosine uptake assay; type: cell-based; conditions: Homo sapiens; accumulation of [3H]adenosine into HeLa cells; concentration range 10 μM to 0.032 nM; read-out: ADU inhibition IC50
Method in brief: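 HeLa cells (25 000/well), plated overnight, were preincubated 30 minutes at ambient temperature with compound in HBSS + 5% FBS. Ten-point titrations ran from 10 μM to 0.032 nM final. [3H]adenosine was added from a 500 nM solution for 60 minutes, and uptake was measured by scintillation proximity counting; IC50 came from a 4-parameter fit.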

SMILES | IC50 [1] [nM] | IC50 [2] [nM]
COCC(=O)N1C[C@H](c2nc(-c3ccc(C(=O)Nc4cc(C(F)(F)F)ccn4)cc3)c3c(N)nccn23)OC[C@@H]1C [Example 78, 4-{8-amino-3-[(2R,5S)-4-(methoxyacetyl)-5-methylmorpholin-2-yl]imidazo[1,5-a]pyrazin-1-yl}-N-[4-(trifluoromethyl)pyridin-2-yl]benzamide] | 0.738 | 260
CO[C@H](C)C(=O)N1C[C@H](c2nc(-c3ccc(C(=O)Nc4cc(C(F)(F)F)ccn4)cc3F)c3c(N)nccn23)OC[C@@H]1C [Example 79, 4-(8-amino-3-{(2R,5S)-4-[(2R)-2-methoxypropanoyl]-5-methylmorpholin-2-yl}imidazo[1,5-a]pyrazin-1-yl)-3-fluoro-N-[4-(trifluoromethyl)pyridin-2-yl]benzamide] | 0.423 | 288
C[C@H](O)C(=O)N1C[C@H](c2nc(-c3ccc(C(=O)Nc4cc(C(F)(F)F)ccn4)cc3)c3c(N)nccn23)OC[C@@H]1C [Example 80, 4-(8-amino-3-{(2R,5S)-4-[(2S)-2-hydroxypropanoyl]-5-methylmorpholin-2-yl}imidazo[1,5-a]pyrazin-1-yl)-N-[4-(trifluoromethyl)pyridin-2-yl]benzamide] | 0.4 | 188
C[C@H]1CO[C@@H](c2nc(-c3ccc(C(=O)Nc4cc(C(F)(F)F)ccn4)cc3)c3c(N)nccn23)CN1C(=O)C1(C)CC1 [Example 81, 4-(8-amino-3-{(2R,5S)-5-methyl-4-[(1-methylcyclopropyl)carbonyl]morpholin-2-yl}imidazo[1,5-a]pyrazin-1-yl)-N-[4-(trifluoromethyl)pyridin-2-yl]benzamide] | 0.51 | 107
CC(C)C(=O)N1C[C@H](c2nc(-c3ccc(C(=O)Nc4cc(C(F)(F)F)ccn4)cc3)c3c(N)nccn23)OC[C@@H]1C [Example 82, 4-{8-amino-3-[(2R,5S)-5-methyl-4-(2-methylpropanoyl)morpholin-2-yl]imidazo[1,5-a]pyrazin-1-yl}-N-[4-(trifluoromethyl)pyridin-2-yl]benzamide] | 0.546 | 262
CC(=O)N1C[C@H](c2nc(-c3ccc(C(=O)Nc4cc(C(F)(F)F)ccn4)cc3)c3c(N)nccn23)OC[C@@H]1C [Example 83, 4-{3-[(2R,5S)-4-acetyl-5-methylmorpholin-2-yl]-8-aminoimidazo[1,5-a]pyrazin-1-yl}-N-[4-(trifluoromethyl)pyridin-2-yl]benzamide] | 0.363 | 188
C[C@H](O)C(=O)N1C[C@H](c2nc(-c3ccc(C(=O)Nc4cc(C(F)(F)F)ccn4)cc3F)c3c(N)nccn23)OC[C@@H]1C [Example 84, 4-(8-amino-3-{(2R,5S)-4-[(2S)-2-hydroxypropanoyl]-5-methylmorpholin-2-yl}imidazo[1,5-a]pyrazin-1-yl)-3-fluoro-N-[4-(trifluoromethyl)pyridin-2-yl]benzamide] | 0.368 | 360
C[C@H]1CO[C@@H](c2nc(-c3ccc(C(=O)Nc4cc(C(F)(F)F)ccn4)cc3F)c3c(N)nccn23)CN1C(=O)C1(C)CC1 [Example 85, 4-(8-amino-3-{(2R,5S)-5-methyl-4-[(1-methylcyclopropyl)carbonyl]morpholin-2-yl}imidazo[1,5-a]pyrazin-1-yl)-3-fluoro-N-[4-(trifluoromethyl)pyridin-2-yl]benzamide] | 0.548 | 189
CC(C)C(=O)N1C[C@H](c2nc(-c3ccc(C(=O)Nc4cc(C(F)(F)F)ccn4)cc3F)c3c(N)nccn23)OC[C@@H]1C [Example 87, 4-{8-amino-3-[(2R,5S)-5-methyl-4-(2-methylpropanoyl)morpholin-2-yl]imidazo[1,5-a]pyrazin-1-yl}-3-fluoro-N-[4-(trifluoromethyl)pyridin-2-yl]benzamide] | 0.738 | 141
CC(=O)N1C[C@H](c2nc(-c3ccc(C(=O)Nc4cc(C(F)(F)F)ccn4)cc3F)c3c(N)nccn23)OC[C@@H]1C [Example 88, 4-{3-[(2R,5S)-4-acetyl-5-methylmorpholin-2-yl]-8-aminoimidazo[1,5-a]pyrazin-1-yl}-3-fluoro-N-[4-(trifluoromethyl)pyridin-2-yl]benzamide] | 0.343 | 215
C[C@H]1CC[C@@H](c2nc(-c3ccc(C(=O)Nc4cc(C#N)ccn4)cc3)c3c(N)nccn23)CN1C(=O)C1CC1 [Example 89, 4-{8-amino-3-[(3R,6S)-1-(cyclopropylcarbonyl)-6-methylpiperidin-3-yl]imidazo[1,5-a]pyrazin-1-yl}-N-(4-cyanopyridin-2-yl)benzamide] | 0.297 | 47.5
C[C@H](O)C(=O)N1C[C@H](c2nc(-c3ccc(C(=O)Nc4cc(C5CC5)ccn4)cc3)c3c(N)nccn23)CC[C@@H]1C [Example 91, 4-(8-amino-3-{(3R,6S)-1-[(2S)-2-hydroxypropanoyl]-6-methylpiperidin-3-yl}imidazo[1,5-a]pyrazin-1-yl)-N-(4-cyclopropylpyridin-2-yl)benzamide] | 0.295 | 40.1

The next lines start with the values.

IC50 [1] [nM] | IC50 [2] [nM] | SMILES
0.448 | 14 | C[C@H]1CC[C@@H](c2nc(-c3ccc(C(=O)Nc4cc(OC5CC5)ccn4)cc3)c3c(N)nccn23)CN1C(=O)N(C)C [Example 90, (2S,5R)-5-[8-amino-1-(4-{[4-(cyclopropyloxy)pyridin-2-yl]carbamoyl}phenyl)imidazo[1,5-a]pyrazin-3-yl]-N,N,2-trimethylpiperidine-1-carboxamide]
0.215 | 22.4 | C[C@H]1CC[C@@H](c2nc(-c3ccc(C(=O)Nc4cc(C(F)F)ccn4)cc3)c3c(N)nccn23)CN1C(=O)N(C)C [Example 92, (2S,5R)-5-[8-amino-1-(4-{[4-(difluoromethyl)pyridin-2-yl]carbamoyl}phenyl)imidazo[1,5-a]pyrazin-3-yl]-N,N,2-trimethylpiperidine-1-carboxamide]
0.248 | 37.1 | C[C@H]1CC[C@@H](c2nc(-c3ccc(C(=O)Nc4cc(C(F)F)ccn4)cc3)c3c(N)nccn23)CN1C(=O)C1(O)CC1 [Example 93, 4-(8-amino-3-{(3R,6S)-1-[(1-hydroxycyclopropyl)carbonyl]-6-methylpiperidin-3-yl}imidazo[1,5-a]pyrazin-1-yl)-N-[4-(difluoromethyl)pyridin-2-yl]benzamide]
0.168 | 175 | C[C@H]1CC[C@@H](c2nc(-c3ccc(C(=O)Nc4cc(C(C)(F)F)ccn4)cc3)c3c(N)nccn23)CN1C(=O)CO [Example 95, 4-{8-amino-3-[(3R,6S)-1-(hydroxyacetyl)-6-methylpiperidin-3-yl]imidazo[1,5-a]pyrazin-1-yl}-N-[4-(1,1-difluoroethyl)pyridin-2-yl]benzamide]
0.168 | 69.8 | C[C@H]1CC[C@@H](c2nc(-c3ccc(C(=O)Nc4cc(C(C)(F)F)ccn4)cc3)c3c(N)nccn23)CN1C(=O)N(C)C [Example 96, (2S,5R)-5-[8-amino-1-(4-{[4-(1,1-difluoroethyl)pyridin-2-yl]carbamoyl}phenyl)imidazo[1,5-a]pyrazin-3-yl]-N,N,2-trimethylpiperidine-1-carboxamide]
0.327 | 129 | COCC(=O)N1C[C@H](c2nc(-c3ccc(C(=O)Nc4cc(C(C)(F)F)ccn4)cc3)c3c(N)nccn23)CC[C@@H]1C [Example 97, 4-{8-amino-3-[(3R,6S)-1-(methoxyacetyl)-6-methylpiperidin-3-yl]imidazo[1,5-a]pyrazin-1-yl}-N-[4-(1,1-difluoroethyl)pyridin-2-yl]benzamide]
